Assay results: patent US9181234B2, “Antibacterial compounds” (priority 2010, dated 2015)
Values after ≈ are worked out from the molar mass of the structure shown.

Legend:
[1] = tested on: Streptococcus pyogenes (Isolate ID ATCC 51339); experiment: Antibacterial activity, MIC, S. pyogenes; format: cell-based; settings: broth microdilution or agar dilution; for Antibacterial Activity (MIC) S. pyogenes (ATCC 51339): Gram positive strain; for MIC: Streptococcus pyogenes, ATCC51339, Gram positive strain
Outline: (§1)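 Per CLSI standard M7-A7, minimum inhibitory concentrations were measured by agar dilution or by broth microdilution.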

[2] = tested on: Haemophilus influenzae (Isolate ID ATCC 49247); experiment: Antibacterial activity, MIC, H. influenzae; format: cell-based; settings: Gram negative strain, broth microdilution or agar dilution; for MIC: Haemophilus influenzae, ATCC49247
Outline: as §1

[3] = tested on: Enterococcus faecalis (Isolate ID ATCC 29212); experiment: Antibacterial activity, MIC, E. faecalis; format: cell-based; settings: Gram positive strain, broth microdilution or agar dilution; for MIC: Enterococcus faecalis, ATCC29212
Outline: as §1

[4] = tested on: Staphylococcus aureus (Isolate ID ATCC 29213); experiment: Antibacterial activity, MIC, S. aureus; format: cell-based; settings: broth microdilution or agar dilution; for Antibacterial Activity (MIC) S. aureus (ATCC 29213): Gram positive strain; for MIC: Staphylococcus aureus, ATCC29213, Gram positive strain
Outline: as §1

physchem = settings: for solubility at 24 h: kinetic from dmso stock
Outline: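 DMSO doubling dilutions were diluted twenty-fold into 100 mM citrate (pH 4), PBS (pH 7.4) or carbonate-bicarbonate (pH 9). After 24 h equilibration at room temperature, absorbance was read at 620 nm. The reported value is the highest concentration without measurable precipitate.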

[5] = pH 7.4, aqueous buffer, Max Solubility
[6] = pH 7.4, aqueous buffer, Solubility (pH 7.4)
[7] = pH 7.4, aqueous buffer, Solubility Range
[8] = pH 7.4, aqueous buffer, Solubility Range (maximum solubility)
[9] = pH 9, aqueous buffer, Max Solubility
[10] = pH 9, aqueous buffer, Solubility Range (maximum solubility)

In the case of `CCNC(=O)Nc1nc2cc(-c3cnc(N4CCC(CC)(C(=O)OCC)CC4)nc3)cc(Br)c2s1` [Compound 107], the “Antibacterial Activity (MIC) S. pyogenes (ATCC 51339)” value [1] was “B (“B” activity >0.25 μg/mL-1.0 μg/mL)”, the “Antibacterial Activity (MIC) H. influenzae (ATCC 49247)” value [2] was “D (“D” activity >16 μg/mL)” and the “Antibacterial Activity (MIC) E. faecalis (ATCC 29212)” value [3] was “A (“A” activity ≦0.25 μg/mL)”. For the same compound, the “Antibacterial Activity (MIC) S. aureus (ATCC 29213)” value [4] was “A (“A” activity ≦0.25 μg/mL)”, the “Max Solubility” value (physchem; pH 7.4) was “≧800 μg/mL” and the “Solubility (pH 7.4)” value (physchem; pH 7.4) was “≧800 μg/mL”.
Compound `CCNC(=O)Nc1nc2cc(-c3cnc(N4CCC(CC)(C(=O)O)CC4)cn3)cc(-c3ccccn3)c2s1` [Compound 108] has an MIC [1] of at most 0.25 µg/mL, an MIC [2] of 1 to 16 µg/mL (≈ 1.88 to 30.1 µM) and an MIC [3] of at most 0.25 µg/mL. For the same compound, the MIC [4] was at most 0.25 µg/mL, the solubility at 24 h (physchem; [5]) was at least 800 µg/mL and the solubility at 24 h (physchem; [6]) was at least 800 µg/mL. The solubility at 24 h (physchem; [7]) was over 800 µg/mL and the solubility at 24 h (physchem; [8]) was over 800 µg/mL.
With `CCNC(=O)Nc1nc2cc(-c3cnc(N4CCC(CC)(C(=O)O)CC4)nc3)cc(-c3nccc(OC)n3)c2s1` [Compound 109] the MIC [1] was at most 0.25 µg/mL, the MIC [2] was over 16 µg/mL and the MIC [3] was at most 0.25 µg/mL. The MIC [4] was at most 0.25 µg/mL, the solubility at 24 h (physchem; [5]) was at least 800 µg/mL and the solubility at 24 h (physchem; [6]) was at least 800 µg/mL. The solubility at 24 h (physchem; [7]) was over 800 µg/mL and the solubility at 24 h (physchem; [8]) was over 800 µg/mL.
`CCNC(=O)Nc1nc2cc(-c3cnc(N4CCC(CC)(C(=O)O)CC4)nc3)cc(-c3cc(OC)ncn3)c2s1` [Compound 110] showed an MIC [1] of at most 0.25 µg/mL, an MIC [2] of 0.25 to 1 µg/mL (≈ 0.444 to 1.78 µM) and an MIC [3] of at most 0.25 µg/mL. For the same compound, the MIC [4] was at most 0.25 µg/mL, the solubility at 24 h (physchem; [5]) was at least 800 µg/mL and the solubility at 24 h (physchem; [6]) was at least 800 µg/mL. The solubility at 24 h (physchem; [7]) was over 800 µg/mL and the solubility at 24 h (physchem; [8]) was over 800 µg/mL.
Work on `CCNC(=O)Nc1nc2cc(-c3cnc(N4CCC(CC)(C(=O)O)CC4)cn3)cc(-c3nccc(C)n3)c2s1` [Compound 112] yielded an MIC [1] of at most 0.25 µg/mL, an MIC [2] of 1 to 16 µg/mL (≈ 1.83 to 29.3 µM) and an MIC [3] of at most 0.25 µg/mL. For the same compound, the MIC [4] was 0.25 to 1 µg/mL (≈ 0.457 to 1.83 µM), the solubility at 24 h (physchem; [6]) was 25 µg/mL (≈ 45.7 µM) and the solubility at 24 h (physchem; [7]) was 12.5 to 400 µg/mL (≈ 22.9 to 732 µM). The solubility at 24 h (physchem; [9]) was 100 µg/mL (≈ 183 µM) and the solubility at 24 h (physchem; [10]) was 12.5 to 400 µg/mL (≈ 22.9 to 732 µM).
Work on `CCNC(=O)Nc1nc2cc(-c3cnc(N4CCC(CC)(C(=O)O)CC4)nc3)ccc2s1` [Compound 113] yielded an MIC [1] of 1 to 16 µg/mL (≈ 2.2 to 35.2 µM), an MIC [2] of over 16 µg/mL and an MIC [3] of 0.25 to 1 µg/mL (≈ 0.55 to 2.2 µM). The MIC [4] was 1 to 16 µg/mL (≈ 2.2 to 35.2 µM), the solubility at 24 h (physchem; [5]) was 100 µg/mL (≈ 220 µM) and the solubility at 24 h (physchem; [6]) was 100 µg/mL (≈ 220 µM). The solubility at 24 h (physchem; [7]) was 12.5 to 400 µg/mL (≈ 27.5 to 880 µM) and the solubility at 24 h (physchem; [8]) was 12.5 to 400 µg/mL (≈ 27.5 to 880 µM).
For `CCNC(=O)Nc1nc2cc(-c3cnc(N4CCC(CC)(C(=O)O)CC4)nc3)cc(N3CCOCC3)c2s1` [Compound 114, 4-ethyl-1-[5-[2-(ethylcarbamoylamino)-7-morpholino-1,3-benzothiazol-5-yl]pyrimidin-2-yl]piperidine-4-carboxylic acid], the MIC [1] was 1 to 16 µg/mL (≈ 1.85 to 29.6 µM), the MIC [2] was over 16 µg/mL and the MIC [3] was at most 0.25 µg/mL. For the same compound, the MIC [4] was 1 to 16 µg/mL (≈ 1.85 to 29.6 µM), the solubility at 24 h (physchem; [5]) was 400 µg/mL (≈ 741 µM) and the solubility at 24 h (physchem; [6]) was 400 µg/mL (≈ 741 µM). The solubility at 24 h (physchem; [7]) was 400 to 800 µg/mL (≈ 741 to 1480 µM) and the solubility at 24 h (physchem; [8]) was 400 to 800 µg/mL (≈ 741 to 1480 µM).
`CCNC(=O)Nc1nc2cc(-c3cnc(N4CCC(CC)(C(=O)O)CC4)nc3)cc(-c3ccc(F)cc3)c2s1` [Compound 115] gave an MIC [1] of 1 to 16 µg/mL (≈ 1.82 to 29.2 µM), an MIC [2] of over 16 µg/mL and an MIC [3] of at most 0.25 µg/mL. It also gave an MIC [4] of at most 0.25 µg/mL, a solubility at 24 h (physchem; [6]) of 400 µg/mL (≈ 729 µM) and a solubility at 24 h (physchem; [7]) of 400 to 800 µg/mL (≈ 729 to 1460 µM). For the same compound, the solubility at 24 h (physchem; [9]) was at least 800 µg/mL and the solubility at 24 h (physchem; [10]) was over 800 µg/mL.
`CCCC1(C(=O)O)CCN(c2ncc(-c3cc(-c4ccccn4)c4sc(NC(=O)NCC)nc4c3)cn2)CC1` [Compound 117] showed an MIC [1] of at most 0.25 µg/mL, an MIC [2] of 1 to 16 µg/mL (≈ 1.83 to 29.3 µM) and an MIC [3] of at most 0.25 µg/mL. The MIC [4] was at most 0.25 µg/mL, the solubility at 24 h (physchem; [6]) was 400 µg/mL (≈ 733 µM) and the solubility at 24 h (physchem; [7]) was 400 to 800 µg/mL (≈ 733 to 1470 µM).
`CCCC1(C(=O)O)CCN(c2ncc(-c3cc(-c4cnccn4)c4sc(NC(=O)NCC)nc4c3)cn2)CC1` [Compound 118] showed an MIC [1] of at most 0.25 µg/mL, an MIC [2] of 1 to 16 µg/mL (≈ 1.83 to 29.3 µM) and an MIC [3] of at most 0.25 µg/mL. For the same compound, the MIC [4] was at most 0.25 µg/mL, the solubility at 24 h (physchem; [6]) was 400 µg/mL (≈ 732 µM) and the solubility at 24 h (physchem; [7]) was 400 to 800 µg/mL (≈ 732 to 1460 µM). For the same compound, the solubility at 24 h (physchem; [9]) was at least 800 µg/mL and the solubility at 24 h (physchem; [10]) was over 800 µg/mL.
For `CCCC1(C(=O)OCC)CCN(c2ncc(-c3cc(Br)c4sc(NC(=O)NCC)nc4c3)cn2)CC1` [Compound 119], the “Antibacterial Activity (MIC) S. pyogenes (ATCC 51339)” value [1] was “C (“C” activity >1.0 μg/mL-16 μg/mL)”, the “Antibacterial Activity (MIC) H. influenzae (ATCC 49247)” value [2] was “D (“D” activity >16 μg/mL)” and the “Antibacterial Activity (MIC) E. faecalis (ATCC 29212)” value [3] was “A (“A” activity ≦0.25 μg/mL)”. The “Antibacterial Activity (MIC) S. aureus (ATCC 29213)” value [4] was “A (“A” activity ≦0.25 μg/mL)”, the “Solubility (pH 7.4)” value (physchem; pH 7.4) was 400 μg/mL and the “Max Solubility” value (physchem; pH 9) was “≧800 μg/mL”.
`CCCC1(C(=O)O)CCN(c2ncc(-c3cc(-c4nccc(C)n4)c4sc(NC(=O)NCC)nc4c3)cn2)CC1` [Compound 120] showed an MIC [1] of at most 0.25 µg/mL, an MIC [2] of over 16 µg/mL and an MIC [3] of at most 0.25 µg/mL. For the same compound, the MIC [4] was at most 0.25 µg/mL, the solubility at 24 h (physchem; [6]) was 400 µg/mL (≈ 713 µM) and the solubility at 24 h (physchem; [7]) was 400 to 800 µg/mL (≈ 713 to 1430 µM). It also gave a solubility at 24 h (physchem; [9]) of at least 800 µg/mL and a solubility at 24 h (physchem; [10]) of over 800 µg/mL.
`CCCC1(C(=O)O)CCN(c2ncc(-c3cc(-c4cc(OC)ncn4)c4sc(NC(=O)NCC)nc4c3)cn2)CC1` [Compound 121] showed an MIC [1] of at most 0.25 µg/mL, an MIC [2] of 1 to 16 µg/mL (≈ 1.73 to 27.7 µM) and an MIC [3] of at most 0.25 µg/mL. For the same compound, the MIC [4] was at most 0.25 µg/mL, the solubility at 24 h (physchem; [6]) was 100 µg/mL (≈ 173 µM) and the solubility at 24 h (physchem; [7]) was 12.5 to 400 µg/mL (≈ 21.7 to 694 µM). It also gave a solubility at 24 h (physchem; [9]) of at least 800 µg/mL and a solubility at 24 h (physchem; [10]) of over 800 µg/mL.
